Species: Rattus norvegicus
Experiment: Open TG-GATES - Regimen: Single
Assay type: toxicity, organism-based, Sprague-Dawley
Parameters: regimen Single, gender Male, age 6 weeks
Conditions: in vivo, po, 3 mg/kg, route gavage, dose level Low; for APTT / Bas / Eos / Fbg / Hb / Ht / Lym / MCH / MCHC / MCV / Mono / Neu / PT / Plat / RBC / Ret / WBC: tissue Blood; for KIDNEY_L / KIDNEY_R / KIDNEY_TOTAL: tissue Kidney; for LIVER: tissue Liver; for A/G / ALP / ALT / AST / BUN / CRE / Ca / Cl / DBIL / GLC / IP / K / LDH / Na / PL / RALB / TBIL / TC / TG / TP / gamma-GTP: tissue Plasma

**Q.** Which results are given for `Nc1c2c(nc3ccccc13)CCCC2` [TACRINE]?
**A.** TERMINAL_BW (3 h): 208.2 g; APTT (3 h): 21.3 s; Bas (3 h): 0%; Eos (3 h): 0.4%; Fbg (3 h): 283.8 mg/dL; Hb (3 h): 13.4 g/dL; Ht (3 h): 39%; Lym (3 h): 77%; MCH (3 h): 21.5 pg; MCHC (3 h): 34.4%; MCV (3 h): 62.5 fL; Mono (3 h): 2.2%; Neu (3 h): 19.4%; PT (3 h): 16.1 s; Plat (3 h): 120.6 x10_4/uL; RBC (3 h): 623.8 x10_4/ul; Ret (3 h): 8.2%; WBC (3 h): 90.3 x10_2/uL; KIDNEY_L (3 h): 0.9 g; KIDNEY_R (3 h): 0.9 g; KIDNEY_TOTAL (3 h): 1.9 g; LIVER (3 h): 9.4 g; A/G (3 h): 1.3; ALP (3 h): 1562.6 IU/L; ALT (3 h): 45.6 IU/L; AST (3 h): 79.6 IU/L; BUN (3 h): 13.4 mg/dL; CRE (3 h): 0.2 mg/dL; Ca (3 h): 10.7 mg/dL; Cl (3 h): 107 meq/L; DBIL (3 h): 0.002 mg/dL; GLC (3 h): 184.2 mg/dL; IP (3 h): 8 mg/dL; K (3 h): 4 meq/L; LDH (3 h): 251.6 IU/L; Na (3 h): 142.6 meq/L; PL (3 h): 139.2 mg/dL; RALB (3 h): 3 g/dL; TBIL (3 h): 0.024 mg/dL; TC (3 h): 75 mg/dL; TG (3 h): 64 mg/dL; TP (3 h): 5.4 g/dL; gamma-GTP (3 h): 1 IU/L; TERMINAL_BW (6 h): 200.8 g; APTT (6 h): 20.8 s; Bas (6 h): 0%; Eos (6 h): 0.8%; Fbg (6 h): 312.8 mg/dL; Hb (6 h): 13.6 g/dL; Ht (6 h): 39.2%; Lym (6 h): 78.8%; MCH (6 h): 21.2 pg; MCHC (6 h): 34.6%; MCV (6 h): 61.2 fL; Mono (6 h): 2.4%; Neu (6 h): 17.2%; PT (6 h): 15.6 s; Plat (6 h): 125.6 x10_4/uL; RBC (6 h): 641 x10_4/ul; Ret (6 h): 7.7%; WBC (6 h): 102.1 x10_2/uL; KIDNEY_L (6 h): 0.9 g; KIDNEY_R (6 h): 0.9 g; KIDNEY_TOTAL (6 h): 1.8 g; LIVER (6 h): 8.7 g; A/G (6 h): 1.2; ALP (6 h): 1243.4 IU/L; ALT (6 h): 34.8 IU/L; AST (6 h): 67.2 IU/L; BUN (6 h): 11.4 mg/dL; CRE (6 h): 0.2 mg/dL; Ca (6 h): 10.6 mg/dL; Cl (6 h): 106.8 meq/L; DBIL (6 h): 0.002 mg/dL; GLC (6 h): 175.6 mg/dL; IP (6 h): 9 mg/dL; K (6 h): 4.4 meq/L; LDH (6 h): 200 IU/L; Na (6 h): 142 meq/L; PL (6 h): 148 mg/dL; RALB (6 h): 3.1 g/dL; TBIL (6 h): 0.024 mg/dL; TC (6 h): 76 mg/dL; TG (6 h): 89.6 mg/dL; TP (6 h): 5.5 g/dL; gamma-GTP (6 h): 1 IU/L; TERMINAL_BW (9 h): 200.1 g; APTT (9 h): 19.8 s; Bas (9 h): 0%; Eos (9 h): 1%; Fbg (9 h): 303.6 mg/dL; Hb (9 h): 13.4 g/dL; Ht (9 h): 39%; Lym (9 h): 78.2%; MCH (9 h): 20.9 pg; MCHC (9 h): 34.4%; MCV (9 h): 60.7 fL; Mono (9 h): 2.6%; Neu (9 h): 17.8%; PT (9 h): 16.3 s; Plat (9 h): 115.2 x10_4/uL; RBC (9 h): 643 x10_4/ul; Ret (9 h): 7.8%; WBC (9 h): 92.4 x10_2/uL; KIDNEY_L (9 h): 0.9 g; KIDNEY_R (9 h): 0.9 g; KIDNEY_TOTAL (9 h): 1.8 g; LIVER (9 h): 8.3 g; A/G (9 h): 1.2; ALP (9 h): 1371.2 IU/L; ALT (9 h): 36 IU/L; AST (9 h): 70.6 IU/L; BUN (9 h): 12.4 mg/dL; CRE (9 h): 0.1 mg/dL; Ca (9 h): 10.6 mg/dL; Cl (9 h): 107.8 meq/L; DBIL (9 h): 0.002 mg/dL; GLC (9 h): 181.6 mg/dL; IP (9 h): 9.8 mg/dL; K (9 h): 4.5 meq/L; LDH (9 h): 253.4 IU/L; Na (9 h): 141.6 meq/L; PL (9 h): 134.4 mg/dL; RALB (9 h): 2.9 g/dL; TBIL (9 h): 0.012 mg/dL; TC (9 h): 69.8 mg/dL; TG (9 h): 97.8 mg/dL; TP (9 h): 5.4 g/dL; gamma-GTP (9 h): 1 IU/L; TERMINAL_BW (24 h): 217.8 g; APTT (24 h): 21.2 s; Bas (24 h): 0%; Eos (24 h): 1%; Fbg (24 h): 292 mg/dL; Hb (24 h): 13.6 g/dL; Ht (24 h): 39.7%; Lym (24 h): 80.8%; MCH (24 h): 21.3 pg; MCHC (24 h): 34.2%; MCV (24 h): 62.4 fL; Mono (24 h): 3%; Neu (24 h): 14.4%; PT (24 h): 16.2 s; Plat (24 h): 113.1 x10_4/uL; RBC (24 h): 636.6 x10_4/ul; Ret (24 h): 7.5%; WBC (24 h): 92.6 x10_2/uL; KIDNEY_L (24 h): 1 g; KIDNEY_R (24 h): 1 g; KIDNEY_TOTAL (24 h): 1.9 g; LIVER (24 h): 10 g; A/G (24 h): 1.3; ALP (24 h): 1864.4 IU/L; ALT (24 h): 46.8 IU/L; AST (24 h): 80 IU/L; BUN (24 h): 15.6 mg/dL; CRE (24 h): 0.1 mg/dL; Ca (24 h): 10.8 mg/dL; Cl (24 h): 107.8 meq/L; DBIL (24 h): 0.002 mg/dL; GLC (24 h): 197.4 mg/dL; IP (24 h): 7.2 mg/dL; K (24 h): 4.1 meq/L; LDH (24 h): 293.2 IU/L; Na (24 h): 141.6 meq/L; PL (24 h): 146.8 mg/dL; RALB (24 h): 3.1 g/dL; TBIL (24 h): 0.032 mg/dL; TC (24 h): 74.4 mg/dL; TG (24 h): 107 mg/dL; TP (24 h): 5.5 g/dL; gamma-GTP (24 h): 1 IU/L
